Laboratory results from US20060094017A1, “Immunogens for hiv vaccine” (priority 2003, published 2006).

Columns and labels:
[1] = system: Mab 2G12; experiment: BIACore (SPR) binding of Mab 2G12 to mimotopes displayed on phage captured by anti-M13 antibody; set-up: species or system human; conditions: round three phage-displayed mimotope (pIII) captured via anti-M13 on RAMFc CM5 chip; 25 μl Mab 2G12 at 100 μg/ml
Description: BIACore confirmation of mimotope binding to Mab 2G12 was determined for four of the identified peptide sequences disclosed in the present application. For the first assay, a batch of individually selected phage was prepared from the transduced E. coli cells described in Example 2. The phage were concentrated by PEG precipitation to be used in the assay. Initially, a murine anti-phage pVIII monoclonal antibody (anti-M13) is captured by a BIACore CM5 chip that is coated with a standard rabbit anti-mouse (Fc) antibody (RAMFc). The anti-M13 antibody captures the chimeric phage selected from the panning procedure described in Example 2. Mab 2G12 is then flowed over the chip in order to describe and confirm binding of the antibody to the captured chimeric phage pIII.
Specifically, RAMFc was first immobilized on the gold surface of the BIACore CM5 chip (Uppsala, Sweden) containing dextran by amine coupling. Twenty-five microliters of anti-M13 antibody (Amersham Pharmacia Biotech, Piscataway, N.J.), at 1 mg/ml, was injected into the flowcell containing the chip at a flow rate of […] and captured by the immobilized RAMFc. The captured anti-M13 was measured in resonance units (RU). After completing the initial control tests of the flowcell, the chip was regenerated by injecting 10 μl of 20 mM HCL, 3 times, into the flowcell. To determine whether Mab 2G12 can detect the mimotopes isolated in the panning procedure described herein, 25 μl of anti-M13 at 1 mg/ml was first injected into the flowcell. Fifty microliters of the round three phage preparation of the mimotope sequence identified by SEQ ID NO:3, WKIPDHGIVVFSWFP, at >1×10^10 phage particles per ml, was injected into the flowcell. This was followed by 25 μl of Mab 2G12 at 100 μg/ml. The amount of Mab 2G12 captured on the chip was subsequently measured in RUs. This procedure was repeated for the following round three mimotopes: RSGHKVWVVSTKESS (SEQ ID NO:1), KCCFAESSRSGTGRY (SEQ ID NO:2) and VLRLMECHFQCVPSL (SEQ ID NO:4). […] Of the four mimotopes tested by this procedure, RSGHKVWVVSTKESS (SEQ ID NO:1) bound Mab 2G12 the tightest at 312 RUs. In comparison, KCCFAESSRSGTGRY (SEQ ID NO:2) bound at 120 RUs, WKIPDHGIVVFSWFP (SEQ ID NO:3) bound at 24 RUs, and VLRLMECHFQCVPSL (SEQ ID NO:4) bound at 17 RUs.

[2] = system: Mab 2G12; experiment: BIACore (SPR) binding of Mab 2G12 to biotinylated synthetic mimotope peptides on streptavidin chip; set-up: species or system human; conditions: synthetic biotinylated mimotope peptide (500 μg/ml) on streptavidin chip; 100 μl Mab 2G12 at 0.25 μg/μl, 5 μl/min
Description: Surface plasmon resonance was also used to confirm the binding of synthetic mimotope peptides identified from the panning procedure described in Example 2 to Mab 2G12. In this assay, a solution of biotinylated mimotope peptide is injected into a flowcell containing a BIACore chip coated with streptavidin. The biotin-streptavidin interaction immobilizes the synthetic mimotope peptide on the chip surface. Mab 2G12 is then injected into the flowcell to determine if the antibody recognizes and is captured by the bound mimotope. Specifically, the streptavidin BIACore chip was warmed to room temperature for 30 minutes. The chip was then docked and primed 2× with HBS-EP (0.01M HEPES, pH 7.4, 0.15M NaCl, 3 mM EDTA, 0.005% Surfactant P20) and conditioned for three cycles with 1M NaCl/50 mM NaOH. Each synthesized, biotinylated mimotope peptide was diluted 1:2 in HBS (0.01M HEPES, pH 7.4) to a final concentration of 500 μg/ml. Seventy-five microliters of each mimotope peptide was then injected into the flowcell at a flow rate of 5 μl/min. Mab 2G12 was resuspended in sterile water to a concentration of 0.25 μg/μl, and 100 μl of the antibody was injected into the flowcell containing the captured synthetic peptide at a flow rate of 5 μl/min. The captured Mab2G12 was measure in RUs. Of the mimotopes tested by this procedure, the synthetic peptide represented by SEQ ID NO:3, WKIPDHGIVVFSWFP, bound Mab 2G12 the tightest at 1193 RUs. In comparison, RSGHKVWVVSTKESS (SEQ ID NO:1) bound at 117 RUs, VLRLMECHFQCVPSL (SEQ ID NO:4) bound at 133 RUs, and TLKSLPYRAVLGAQA (SEQ ID NO:5) bound at 37 RUs. […] Thus, the mimotope represented by SEQ ID NO:2 binds to Mab 2G12 more efficiently as a multivalent structure (e.g., when within the pIII on the tip of the filamentous phage particle).

| Sequence | amount of Mab 2G12 captured on the chip [1] | captured Mab 2G12 [2] |
| --- | --- | --- |
| KCCFAESSRSGTGRY (Synthetic peptide mimotope) [SEQ ID NO:2] | 120 RUs | no binding |
| RSGHKVWVVSTKESS (Synthetic peptide mimotope) [SEQ ID NO:1] | 312 RUs | 117 RUs |
| TLKSLPYRAVLGAQA (Synthetic peptide mimotope) [SEQ ID NO:5] |  | 37 RUs |
| VLRLMECHFQCVPSL (Synthetic peptide mimotope) [SEQ ID NO:4] | 17 RUs | 133 RUs |
| WKIPDHGIVVFSWFP (Synthetic peptide mimotope) [SEQ ID NO:3] | 24 RUs | 1193 RUs |
